Measurements from patent publication US20220202882A1, “EFFECT OF COMBINATION OF BIFIDOBACTERIUM AND BERBERINE ON PRE-DIABETES AND TYPE 2 DIABETES” (The Fourth Military Medical University, priority 2018, published 2022).
Where a name gives a salt, the structure may show the parent alone.

Test system: pre-diabetic and type 2 diabetes mellitus patients
Experiment: Clinical trial: ketone level in urine
Type: in vivo, human
Conditions: for Effect on urine ketone body level (in words) / Post-treatment ketone level in urine - pre-treatment ketone level in urine, mean value: 16 weeks of treatment; for Post-treatment ketone level in urine - pre-treatment ketone level in urine, mean value / Post-treatment ketone level in urine, mean value / Pre-treatment ketone level in urine, mean value: FAS; for Post-treatment ketone level in urine, mean value: after 16 weeks of treatment; for Pre-treatment ketone level in urine, mean value: baseline before treatment
Experimental: From June 2015 to October 2018, a double-blind, randomized, and parallel-controlled trial, studying the effects of the combined use of Bifidobacterium and berberine on pre-diabetic and type 2 diabetes mellitus patients, was conducted in 10 research centers in Xi'an, Yan'an and Shangluo of Shaanxi province, etc., including the First Affiliated Hospital of the Fourth Military Medical University. The trial included an enrollment stage of 2 weeks and a treatment stage of 16 weeks. After passing the first visit 1 (see V1 in Table 1), the subjects entered the enrollment stage, i.e., 2 weeks of lifestyle intervention, followed by a re-screening (see V2 in Table 1). The subjects were subjected to a 16-week course of treatment after passing the screening. See Table 1 for the detailed screening parameters. After the enrollment stage, the baseline data of the 300 successfully enrolled subjects were collected. Meanwhile, the subjects started to receive lifestyle guidance, and were randomly divided into four groups for 16 weeks of treatments. 1) Bifidobacterium group: the subjects were administered with Bifidobacterium capsules (Livzon Pharmaceutical Group Inc., batch no.: 20141013), 0.35 g/capsule, each capsule containing 50,000,000 viable bacteria (Bifidobacterium adolescentis DM8504), 2 capsules/time, 2 times/day, plus berberine placebo tablets (Northeast Pharma Group Shenyang First Pharma Co., Ltd., Lot no.: 20150101, containing 80.2% microcrystalline cellulose, 9.4% pregelatinized starch, 6.4% sodium carboxymethyl starch, 1% magnesium stearate, and 3% copovidone), 0.1 g/tablet, 5 tablets/time, 2 times/day. 2) Berberine group: the subjects were administered with berberine tablets (Northeast Pharma Group Shenyang First Pharma Co., Ltd., Lot no.: 130917, each tablet weighted 0.165 g and contained 0.1 g active berberine ingredient (berberine hydrochloride), with the same excipients as the placebo tablets), 5 tablets/time, 2 times/day, plus Bifidobacterium placebo capsules (Livzon Pharmaceutical Group Inc., Lot no.: 141001, specifically containing 0.348 g spray-dried lactose, and 0.002 g magnesium stearate), 0.35 g/capsule, 2 capsules/time, 2 times/day. 3) Combination Group: the subjects were administered with Bifidobacterium capsules, 0.35 g/capsule, each capsule containing 50,000,000 viable bacteria (B. adolescentis DM8504), 2 capsules/time, 2 times/day, plus berberine tablets, 0.1 g/tablet, each tablet containing 0.1 g active berberine ingredient (berberine hydrochloride), 5 tablets/time, 2 times/day. 4) Control group: the subjects were administered with Bifidobacteria placebo capsules, 0.35 g/capsule, 2 capsules/time, 2 times/day, plus berberine placebo tablets, 0.1 g/tablet, 5 tablets/time, 2 times/day. Bifidobacterium capsules were taken after meals and berberine tablets were taken before meals. Tests of all samples in the study were carried out in a designated laboratory with standardized criteria. Blood analysis covered hundreds of indicators including insulin, amino acids, cytokines etc. After the sample testing was finished, 1) Chi-Squared test and t-test were used to evaluate the intergroup balance of the baseline data including the demographic characteristics and pre-treatment indicators, wherein the baseline data referred to those collected at the second visit, before the formal administration, the data collected at the first visit on the enrollment stage were used instead if the data at the second visit was lacking; 2) two-way disordered CM-CH11, Kruska-Wilcox test, etc. were used for analysis and intergroup comparison of pre- and post-treatment indicators such as fasting plasma glucose (FPG), HbA1c, plasma glucose at 2 hours post OGTT (2-h PPG), blood pressure, blood lipids, body weight and BMI; 3) adverse events and hypoglycemia events were described in terms of the type, frequency and relevance with the drugs, for safety evaluation. Software SAS 9.1.3 was used for statistical analysis with all analysis processes being programmed. […]

| Compound | Effect on urine ketone body level (in words) | Post-treatment ketone level in urine - pre-treatment ketone level in urine, mean value | Post-treatment ketone level in urine, mean value | Pre-treatment ketone level in urine, mean value |
| --- | --- | --- | --- | --- |
| COc1ccc2cc3[n+](cc2c1OC)CCc1cc2c(cc1-3)OCO2 [Berberine, berberine hydrochloride] | not observed | 0.0526 | 0.0513 | 0.0000 |
| Bifidobacterium | not observed | −0.0909 | 0.0341 | 0.1100 |
